Assay results taken from US4110536A, “Derivatives of 5-(indol-3-yl)hydantoin” (Miles Laboratories, Inc., priority 1977, dated 1978).
Read-outs that look alike come from different tables or passages of the source.

Legend:
[1] = system: chloroform-induced arrhythmias; conditions: mouse, in vivo, ip, 10 min
Procedure: The antiarrhythmic activity of the compounds listed above were tested in the experimental model reported by J. W. Lawson (J. Pharmacol. Exp. Therap., 160: 22-31 (1968).
The test compounds were administered in varying intraperitoneal doses to groups consisting of 5 mice. Ten minutes after administration of a given dose of a compound, a mouse was transferred to a covered 300 ml glass beaker that contained a wad of cotton saturated with about 20 ml of chloroform. The animal was observed closely and removed from the beaker immediately after respiratory arrest. The heart was quickly exposed by making an incision through the abdomen, diaphragm, thorax and pericardium for visual inspection of ventricular rate and rhythm. Ventricular contractions were counted for 30 seconds. According to the procedure reported by Lawson, animals with ventricular rate not exceeding 100 contractions during the 30 second observation period were considered protected.

[2] = in vivo; conditions: mouse, ip
Procedure: (§1) LD50 data were obtained by standard procedures known to the art.
(§2) In order to obtain an indication of the specificity and/or safety margin of the antiarrhythmic effect, the acute toxicity of the compounds was investigated. This was carried out by administering log-spaced intraperitoneal doses of the test compounds to groups of five mice.

[3] = cited from earlier work
[4] = system: ventricular arrhythmias induced by digitalis; conditions: prior-art background; cited from earlier work
[5] = system: mice
Procedure: as §1, §2

Row | Compound | ED50 [1] [mg/kg] | LD50 at 48 h [2] [mg/kg] | selectivity ratio [2] | other results
1 | O=C1NC(Cc2c[nH]c3ccccc23)C(=O)N1CCCN1CCC(O)(c2ccccc2)CC1 (stereo not shown) [Example 13, 3-[3-(4-Hydroxy-4-phenylpiperid-1-yl)propyl]-5-[(indol-3-yl)methyl]hydantoi] | 23 | 57 | 2.5 | –
2 | O=C1NC(c2c[nH]c3ccccc23)C(=O)N1CCCN1CCCCC1 (stereo not shown) [Example 6, 5-(Indol-3-yl)-3-[3-(piperid-1-yl)propyl]hydantoin] | – | 66 | 3.1 | –
3 | COc1ccc2[nH]cc(CC3NC(=O)N(CCCN4CCC(c5ccccc5)CC4)C3=O)c2c1 (stereo not shown) [Example 21, 5-(5-Methoxyindol-3-ylmethyl)-3-[3-(4-phenylpiperid-1-yl)propyl]hydantoin] | 9 | 24 | 2.7 | –
4 | CCN(CC)CCCN1C(=O)NC(c2c[nH]c3ccccc23)C1=O (stereo not shown) [Example 15, 3-(3-Diethylaminopropyl)-5-(indol-3-yl)hydantoin] | 44 | 79 | 1.8 | –
5 | C=C[C@H]1C[N@@]2CC[C@H]1C[C@@H]2[C@@H](O)c1ccnc2ccc(OC)cc12 [Quinidine] | – | – | – | side effects / toxicity ([3]; prior-art background): relatively toxic
6 | O=C1NC(=O)C(c2ccccc2)(c2ccccc2)N1 [III, 5,5-diphenyl-2,4-imidazolidinedione] | 123 | – | – | side effects / toxicity ([3]; in vivo): dizziness, nausea, emesis, nystigmus, and ataxia; side effects / toxicity ([3]; prior-art background, listed as DPH): toxic and may produce atrio-ventricular blockage, bradycardia, or even cardiac arrest; antiarrhythmic effects [4]: specifically antagonizes ventricular arrhythmias induced by digitalis, depresses ventricular automaticity, enhances atrio-ventricular nodal conduction, and reduces the effective refractory period
7 | 5-[(indol-3-yl)methyl]hydantoin [V (R=II)] | 72 | – | – | Therapeutic Index ([5]; LD50/ED50, mouse, i.p.): 4.3; LD50 ([5]; mouse, in vivo, ip, 2880 min): 307 mg/kg
8 | C[N+]1(CCCN2C(=O)NC(Cc3c[nH]c4ccccc34)C2=O)CCC(c2ccccc2)CC1 (stereo not shown) [Example 10, 5-(Indol-3-ylmethyl)-3-[3-(4-phenyl-1-piperidyl)propyl]hydantoin methiodide] | 19.6 | 69 | 3.5 | –
9 | CCN(CC)CCCN1C(=O)NC(c2ccccc2)(c2c[nH]c3ccccc23)C1=O (stereo not shown) [Example 14, 3-(3-Diethylaminopropyl)-5-(indol-3-yl)-5-phenylhydantoin] | 27 | 48 | 1.8 | –
10 | O=C1NC(Cc2c[nH]c3ccccc23)C(=O)N1CCCN1CCCCC1 (stereo not shown) [Example 20, 5-(Indol-3-ylmethyl)-3-(3-piperidylpropyl)hydantoin] | 23.8 | 190 | 8 | –
11 | O=C1NC(Cc2c[nH]c3ccc(Cl)cc23)C(=O)N1CCCN1CCC(c2ccccc2)CC1 (stereo not shown) [Example 11, 5-(5-Chloroindol-3-ylmethyl)-3-[3-(4-phenyl-1-piperidyl)propyl]hydantoin] | 37 | 69 | 1.9 | –
12 | O=C1NC(Cc2c[nH]c3ccccc23)C(=O)N1CCCN1CCC(c2ccccc2)CC1 (stereo not shown) [Example 9, 5-(Indol-3-ylmethyl)-3-[3-(4-phenyl-1-piperidyl)propyl]hydantoin] | 7.5 | 19 | 2.5 | –
13 | CCN(CC)CCCN1C(=O)NC(Cc2c[nH]c3ccc(OC)cc23)C1=O (stereo not shown) [Example 18, 3-(3-Diethylaminopropyl)-5-(5-methoxyindol-3-ylmethyl)hydantoin] | 13 | 61 | 4.7 | –
14 | CCN(CC)CCCN1C(=O)NC(Cc2c[nH]c3ccc(Cl)cc23)C1=O (stereo not shown) [Example 17, 5-(5-Chloroindol-3-ylmethyl)-3-(diethylaminopropyl)hydantoin] | 44 | 74 | 1.7 | –
15 | O=C1NC(c2ccccc2)(c2c[nH]c3ccccc23)C(=O)N1CCCN1CCC(c2ccccc2)CC1 (stereo not shown) [Example 12, 5-(Indol-3-yl)-5-phenyl-3-[3-(4-phenyl-1-piperidyl)propyl]hydantoin] | 80 | 63 | 0.9 | –
